Legend:
[1] = n-octanol/PBS distribution coefficient (shake-flask); assay type: physicochemical; conditions: n-octanol/PBS pH 7.4, shake-flask
Protocol: The distribution coefficients (logD values) of the radioligands were determined by a shake-flask method using liquid-liquid extraction followed by phase separation, as previously reported (Additional file 1). In brief, the PSMA ligands were labeled at a specific activity of 5 MBq/nmol. […] The vials were vortexed vigorously for 1 min and then centrifuged for 6 min for phase separation. The concentration of radioactivity in a defined volume of each layer was measured in a γ-counter (Perkin Elmer, Wallac Wizard 1480). The distribution coefficients were expressed as the logarithm of the ratio of counts per minute (cpm) measured in the n-octanol phase to the cpm measure in the PBS phase. The values are reported as the average of at least three independent measurements (± standard deviation, SD), each performed with five replicates. Data were analyzed for significance using a one-way ANOVA test (GraphPad Prism software, version 7). A p value of <0.05 was considered as statistically significant.

[2] = tested on: PC-3 PIP/flu tumor-bearing mice; experiment: Biodistribution in PC-3 PIP/flu tumor-bearing mice; conditions: i.v.; for PC-3 flu Tumor: PSMA^neg xenograft; for PC-3 PIP Tumor: PSMA^pos xenograft
Protocol: In vivo experiments were approved by the local veterinarian department and conducted in accordance with the Swiss law of animal protection. All mice were obtained from Charles River Laboratories (Sulzfeld, Germany), at the age of 5–6 weeks. Female, athymic nude Balb/c mice were subcutaneously inoculated with PC-3 PIP cells (6 × 10^6 cells in 100 μL Hank’s balanced salt solution (HBSS) with Ca^2+/Mg^2+) on the right shoulder and with PC-3 flu cells (5 × 10^6 cells in 100 μL HBSS with Ca^2+/Mg^2+) on the left shoulder 2 weeks before the performance of the experiments.
Mice were sacrificed at different time points post injection (p.i.) of the radioligands. Selected tissues and organs were collected, weighed and measured using a γ-counter. The results were decay-corrected and listed as a percentage of the injected activity per gram of tissue mass (% IA/g).

PSMA = molecular target: T1, PSMA (Homo sapiens, UniProt Q04609); experiment: Saturation binding assay on PC-3 PIP cells (PSMA affinity, KD); conditions: for Kd: 30 min at 4 °C, saturation binding; for Relative PSMA-binding affinity: inverse molar ratio of average KD values, ^177Lu-PSMA-617 set to 1
T1 construct: expressed in transfected cells; host or cells: PC-3 PIP cells (PSMA-positive subline of human PC-3 prostate cancer cells), provided by Prof; Martin Pomper, Johns Hopkins
T1 sequence (Q04609 whole entry): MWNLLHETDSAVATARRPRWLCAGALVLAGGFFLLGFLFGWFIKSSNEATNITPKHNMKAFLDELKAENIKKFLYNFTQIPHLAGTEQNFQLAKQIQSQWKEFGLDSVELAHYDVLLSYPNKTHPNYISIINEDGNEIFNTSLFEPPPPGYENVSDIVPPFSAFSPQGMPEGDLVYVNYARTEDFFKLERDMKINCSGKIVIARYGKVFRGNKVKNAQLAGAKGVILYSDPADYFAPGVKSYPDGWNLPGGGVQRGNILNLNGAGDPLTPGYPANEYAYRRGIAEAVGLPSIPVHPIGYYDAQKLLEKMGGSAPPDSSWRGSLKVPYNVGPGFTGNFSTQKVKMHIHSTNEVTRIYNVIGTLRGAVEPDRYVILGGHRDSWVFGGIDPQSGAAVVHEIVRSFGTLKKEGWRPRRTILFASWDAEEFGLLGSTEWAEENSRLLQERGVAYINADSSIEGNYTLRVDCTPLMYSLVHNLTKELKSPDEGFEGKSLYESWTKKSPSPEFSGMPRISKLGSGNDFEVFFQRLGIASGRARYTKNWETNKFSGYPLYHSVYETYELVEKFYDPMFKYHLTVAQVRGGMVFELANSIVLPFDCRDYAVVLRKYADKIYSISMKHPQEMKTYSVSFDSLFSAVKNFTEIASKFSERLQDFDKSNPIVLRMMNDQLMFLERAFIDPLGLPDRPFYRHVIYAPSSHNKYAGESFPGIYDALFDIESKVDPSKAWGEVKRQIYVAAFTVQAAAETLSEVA
Protocol: Determination of the PSMA affinity was performed by saturation binding assays using PC-3 PIP cells and different concentrations of ^nat/44Sc-, ^nat/177Lu-, ^nat/68Ga-PSMA-617, or ^nat/68Ga-PSMA-11, respectively (Additional file 1).
Determination of the KD values was performed by saturation binding assays using PSMA^pos PC-3 PIP cells. After successful radiolabeling of the PSMA ligands, a 2.5-fold molar excess of the corresponding cold metal was added and the reaction mixture was incubated for another 10 min at 95 °C. Quality control was performed again after reaction of the radioligands with the “cold” metal as described in the main manuscript.
The cells were seeded in 48-well-plates (8 x 10^5 cells in 500 uL RPMI medium/well) allowing adhesion and growth overnight at 37 °C and 5% CO2. For the entire experiment, the well-plates were kept on ice. After removal of the supernatant, the cells were washed once with ice-cold PBS pH 7.4 prior to the addition of different concentrations (1 nM-2 µM) of either ^nat/44Sc-, ^nat/177Lu-, ^nat/67/68Ga-PSMA-617 or ^nat/67/68Ga-PSMA-11 in ice-cold RPMI medium without supplements. For the determination of non-specific binding, cell samples were incubated with 2-phosphonomethyl pentanedioic acid (2-PMPA, 200 μM). The well-plates were incubated for 30 min at 4 °C. Then, the supernatants were removed and the cells washed twice with ice-cold PBS followed by addition of NaOH (1 M, 600 µL) to each well. The cell suspensions were transferred to 4 mL tubes for measurement in a γ-counter (Wallac Wizard 1480, Perkin Elmer). The KD values were determined by plotting specific-binding (total binding minus unspecific binding) against the molar concentration of the added radioligands followed by nonlinear regression analysis using GraphPad Prism 7 software.

For `O=C([O-])CN1CCN(CC(=O)[O-])CCN(CC(=O)NCC2CCC(C(=O)NC(Cc3ccc4ccccc4c3)C(=O)NCCCCC(NC(=O)NC(CCC(=O)O)C(=O)O)C(=O)O)CC2)CCN(CC(=O)[O-])CC1.[44Sc+3]` (centres unmarked) [^44Sc-PSMA-617], the LogD values [1] was −4.21 ± 0.04, the Blood ([2]; 15 min p.i.) was 6.76 ± 0.28 % IA/g and the Bone ([2]; 15 min p.i.) was 2.75 ± 0.73 % IA/g. The Heart ([2]; 15 min p.i.) was 2.79 ± 0.31 % IA/g, the Intestines ([2]; 15 min p.i.) was 1.89 ± 0.13 % IA/g and the Kidneys ([2]; 15 min p.i.) was 37.7 ± 0.82 % IA/g. For the same compound, the Liver ([2]; 15 min p.i.) was 1.98 ± 0.19 % IA/g, the Lung ([2]; 15 min p.i.) was 5.24 ± 0.30 % IA/g and the Muscle ([2]; 15 min p.i.) was 1.37 ± 0.11 % IA/g. The Salivary glands ([2]; 15 min p.i.) was 2.27 ± 0.22 % IA/g, the Spleen ([2]; 15 min p.i.) was 3.06 ± 0.18 % IA/g and the Stomach ([2]; 15 min p.i.) was 2.25 ± 0.16 % IA/g. For the same compound, the “PC-3 flu Tumor” value ([2]; 15 min p.i.) was 2.14 ± 0.13 % IA/g, the “PC-3 PIP Tumor” value ([2]; 15 min p.i.) was 36.5 ± 7.44 % IA/g and the Blood ([2]; 30 min p.i.) was 2.52 ± 0.43 % IA/g. It also gave a Bone ([2]; 30 min p.i.) of 0.92 ± 0.19 % IA/g, a Heart ([2]; 30 min p.i.) of 1.31 ± 0.14 % IA/g and an Intestines ([2]; 30 min p.i.) of 1.05 ± 0.32 % IA/g. The Kidneys ([2]; 30 min p.i.) was 27.8 ± 3.29 % IA/g, the Liver ([2]; 30 min p.i.) was 0.80 ± 0.05 % IA/g and the Lung ([2]; 30 min p.i.) was 2.06 ± 0.25 % IA/g. For the same compound, the Muscle ([2]; 30 min p.i.) was 1.08 ± 0.20 % IA/g, the Salivary glands ([2]; 30 min p.i.) was 1.21 ± 0.14 % IA/g and the Spleen ([2]; 30 min p.i.) was 2.20 ± 0.67 % IA/g. The Stomach ([2]; 30 min p.i.) was 0.91 ± 0.17 % IA/g, the “PC-3 flu Tumor” value ([2]; 30 min p.i.) was 1.51 ± 0.18 % IA/g and the “PC-3 PIP Tumor” value ([2]; 30 min p.i.) was 44.4 ± 7.51 % IA/g. For the same compound, the Bone ([2]; 2 h p.i.) was 0.26 ± 0.13 % IA/g, the Heart ([2]; 2 h p.i.) was 0.36 ± 0.04 % IA/g and the Intestines ([2]; 2 h p.i.) was 0.15 ± 0.04 % IA/g. For the same compound, the Kidneys ([2]; 2 h p.i.) was 5.97 ± 0.90 % IA/g, the Liver ([2]; 2 h p.i.) was 0.22 ± 0.03 % IA/g and the Lung ([2]; 2 h p.i.) was 0.37 ± 0.01 % IA/g. For the same compound, the Muscle ([2]; 2 h p.i.) was 0.36 ± 0.11 % IA/g, the Salivary glands ([2]; 2 h p.i.) was 0.36 ± 0.07 % IA/g and the Spleen ([2]; 2 h p.i.) was 0.81 ± 0.34 % IA/g. For the same compound, the Stomach ([2]; 2 h p.i.) was 0.20 ± 0.05 % IA/g, the “PC-3 flu Tumor” value ([2]; 2 h p.i.) was 0.32 ± 0.16 % IA/g and the “PC-3 PIP Tumor” value ([2]; 2 h p.i.) was 46.7 ± 4.36 % IA/g. The “PC-3 flu Tumor” value ([2]; 4 h p.i.) was 0.40 ± 0.08 % IA/g, the “PC-3 PIP Tumor” value ([2]; 4 h p.i.) was 51.9 ± 4.05 % IA/g and the Blood ([2]; 6 h p.i.) was 0.27 ± 0.02 % IA/g. The Bone ([2]; 6 h p.i.) was 0.65 ± 0.21 % IA/g, the Heart ([2]; 6 h p.i.) was 0.63 ± 0.10 % IA/g and the Intestines ([2]; 6 h p.i.) was 0.13 ± 0.01 % IA/g. It also gave a Kidneys ([2]; 6 h p.i.) of 3.09 ± 0.58 % IA/g, a Liver ([2]; 6 h p.i.) of 0.31 ± 0.02 % IA/g and a Lung ([2]; 6 h p.i.) of 0.51 ± 0.06 % IA/g. The Muscle ([2]; 6 h p.i.) was 0.94 ± 0.08 % IA/g, the Salivary glands ([2]; 6 h p.i.) was 0.75 ± 0.17 % IA/g and the Spleen ([2]; 6 h p.i.) was 0.90 ± 0.03 % IA/g. The Stomach ([2]; 6 h p.i.) was 0.39 ± 0.07 % IA/g, the “PC-3 flu Tumor” value ([2]; 6 h p.i.) was 0.24 ± 0.02 % IA/g and the “PC-3 PIP Tumor” value ([2]; 6 h p.i.) was 52.0 ± 8.42 % IA/g. The Kd (PSMA) was 33 ± 12 nM and the “Relative PSMA-binding affinity” value (PSMA) was 1.2.

`O=C([O-])CN1CCN(CC(=O)[O-])CCN(CC(=O)NCC2CCC(C(=O)NC(Cc3ccc4ccccc4c3)C(=O)NCCCCC(NC(=O)NC(CCC(=O)O)C(=O)O)C(=O)O)CC2)CCN(CC(=O)[O-])CC1.[68Ga+3]` (centres unmarked) [^68Ga-PSMA-617] showed a LogD values [1] of −4.30 ± 0.10, a Blood ([2]; 15 min p.i.) of 6.88 ± 0.89 % IA/g and a Bone ([2]; 15 min p.i.) of 1.72 ± 0.06 % IA/g. The Heart ([2]; 15 min p.i.) was 2.61 ± 0.49 % IA/g, the Intestines ([2]; 15 min p.i.) was 1.55 ± 0.19 % IA/g and the Kidneys ([2]; 15 min p.i.) was 22.8 ± 0.81 % IA/g. For the same compound, the Liver ([2]; 15 min p.i.) was 4.74 ± 0.43 % IA/g, the Lung ([2]; 15 min p.i.) was 4.70 ± 0.09 % IA/g and the Muscle ([2]; 15 min p.i.) was 1.53 ± 0.24 % IA/g. It also gave a Salivary glands ([2]; 15 min p.i.) of 2.30 ± 0.37 % IA/g, a Spleen ([2]; 15 min p.i.) of 3.92 ± 0.28 % IA/g and a Stomach ([2]; 15 min p.i.) of 1.48 ± 0.09 % IA/g. The “PC-3 flu Tumor” value ([2]; 15 min p.i.) was 2.30 ± 0.18 % IA/g, the “PC-3 PIP Tumor” value ([2]; 15 min p.i.) was 28.7 ± 5.26 % IA/g and the Blood ([2]; 30 min p.i.) was 3.46 ± 0.98 % IA/g. For the same compound, the Bone ([2]; 30 min p.i.) was 1.00 ± 0.17 % IA/g, the Heart ([2]; 30 min p.i.) was 1.47 ± 0.34 % IA/g and the Intestines ([2]; 30 min p.i.) was 0.98 ± 0.28 % IA/g. The Kidneys ([2]; 30 min p.i.) was 15.5 ± 3.46 % IA/g, the Liver ([2]; 30 min p.i.) was 2.91 ± 0.65 % IA/g and the Lung ([2]; 30 min p.i.) was 2.55 ± 0.51 % IA/g. The Muscle ([2]; 30 min p.i.) was 0.80 ± 0.10 % IA/g, the Salivary glands ([2]; 30 min p.i.) was 1.06 ± 0.23 % IA/g and the Spleen ([2]; 30 min p.i.) was 2.50 ± 0.82 % IA/g. For the same compound, the Stomach ([2]; 30 min p.i.) was 1.09 ± 0.40 % IA/g, the “PC-3 flu Tumor” value ([2]; 30 min p.i.) was 1.23 ± 0.35 % IA/g and the “PC-3 PIP Tumor” value ([2]; 30 min p.i.) was 48.5 ± 8.51 % IA/g. The Blood ([2]; 2 h p.i.) was 0.14 ± 0.00 % IA/g, the Bone ([2]; 2 h p.i.) was 0.09 ± 0.02 % IA/g and the Heart ([2]; 2 h p.i.) was 0.09 ± 0.01 % IA/g. The Intestines ([2]; 2 h p.i.) was 0.12 ± 0.03 % IA/g, the Kidneys ([2]; 2 h p.i.) was 3.48 ± 0.18 % IA/g and the Liver ([2]; 2 h p.i.) was 1.60 ± 0.05 % IA/g. For the same compound, the Lung ([2]; 2 h p.i.) was 0.20 ± 0.00 % IA/g, the Muscle ([2]; 2 h p.i.) was 0.05 ± 0.01 % IA/g and the Salivary glands ([2]; 2 h p.i.) was 0.14 ± 0.03 % IA/g. The Spleen ([2]; 2 h p.i.) was 0.91 ± 0.14 % IA/g, the Stomach ([2]; 2 h p.i.) was 0.16 ± 0.11 % IA/g and the “PC-3 flu Tumor” value ([2]; 2 h p.i.) was 0.18 ± 0.03 % IA/g. The “PC-3 PIP Tumor” value ([2]; 2 h p.i.) was 55.8 ± 14.2 % IA/g, the Kd (PSMA) was 72 ± 29 nM and the “Relative PSMA-binding affinity” value (PSMA) was 0.5.
